Legend:
Type in all cases: in vivo
[1] = Time intensity profile in a soft drink system; details: 80 ppm monatin, 10.0% sucrose, 200 ppm sucralose, pH 3.2 model soft drink; for Intensity of Maximum Sweetness: scale 0-100
Experimental: Solutions of 80 ppm monatin (racemic mix of monatin described in Example 14), 10.0% (w/v) sucrose and 200 ppm sucralose were prepared in the pH 3.2 model soft drink system described in Example 14. The time intensity profile of these solutions then was assessed using the following procedure. Six panelists were included in the study. These panelists were screened for their general sensory acuity and selected for their sensitivity to sweetness intensity and sweetness quality differences. All were experienced in methods of sweetener assessment and had received special training in time intensity evaluations. Training sessions were carried out initially to familiarize the panel with the method of evaluation and scoring the samples over time using a computerized data entry system.
Samples of each solution (13 mL) were coded and presented individually to panelists, in random order. For each panelist, immediately after swallowing, the computer recorded timed intensity readings on the scale of 0-100 each second, up to 60 seconds. Each solution was evaluated in duplicate.

[2] = Taste profiling of lemon/lime carbonates and colas; details: HFCS 10%, aspartame 500 ppm, sucralose 200 ppm, blends 30.8 ppm/5.0%; for Average Score: score 1, poor-5, good, sucrose 10%
Experimental: Cola and lemon/lime beverages were prepared using the following formulations and sweetened with sucrose, HFCS (55% fructose), aspartame, sucralose, monatin (racemic mix described in Example 14), monatin/sucrose, or monatin/HFCS. One part of syrup was added to 5.5 parts carbonated water and evaluated.
Assessments were carried out ‘double blind’ by a panel of trained tasters. The sucrose-sweetened product was identified as the control and all other products randomly coded. Panelists were asked to assess the randomly coded sample relative to the control for the following attributes:
Panelists also were asked assign a score (1; poor-5; good) for the quality of the sweetener system. A summary of the comments generated together with the average score awarded is presented in Tables 12 and 13 for lemon/lime carbonates and colas, respectively. […] Blends of monatin/carbohydrate rated higher. In the cola, monatin was similar to aspartame.

[3] = Sensory evaluation of sweeteners in coffee and iced tea; details: 200 mL serving
Experimental: Monatin sweetener formulations, comprising R,R monatin or R,R monatin/erythritol combinations, were assessed relative to other known sweeteners (aspartame and sucralose) in coffee and iced tea. The key sensory parameters assessed included sweetness quality, aftertaste, bitter taste and its aftertaste. Qualitative evaluation was carried out.
Standard coffee was used in which to evaluate sweetener performance (Table 17).
Sweeteners were added to coffee at the following concentrations:
An ice tea formulation was developed to evaluate sweetener performance (Table 18).
Sweeteners were added to tea at the following concentrations:
The evaluation of these coffee and tea drinks was carried out by a panel (n=6) of experienced sensory evaluators who evaluated the coffee products on one tasting occasion and the tea products on a subsequent occasion.

[4] = Sensory evaluation of soft drinks (lemon/lime, orangeade, cola)
Experimental: Beverages (cola, lemon-lime and orange) were formulated and sweetened with aspartame, sucralose or R,R monatin. Qualitative evaluation was carried out.
The term “throw” refers to dilution in water. For example, a throw of “1+4” means 1 part concentrate formulation to 4 parts water. Thus, if a concentrate formulation includes 0.021% wt/vol (i.e., 210 ppm) of R,R monatin, for example, a throw of 1+4 makes a diluted beverage containing 42 ppm (210 ppm/5) R,R monatin.
Final ready-to-drink beverages (after throw) contained sweetener concentrations as follows:
Evaluation of these soft drinks was carried out by a panel (n=6) of assessors who evaluated each set of drinks on separate tasting occasions.

[5] = Sweetness comparison procedure against sucrose reference solutions, trained sensory evaluators; details: determined at approximately 8% SEV
Experimental: The S,S stereoisomer of monatin is approximately 50-200 times sweeter than sucrose by weight. The R,R stereoisomer of monatin is approximately 2000-2400 times sweeter than sucrose by weight. The sweetness of the monatin is calculated using experienced sensory evaluators in a sweetness comparison procedure, where a test sweetener solution is matched for sweetness intensity against one of a series of reference solutions. The solutions may be prepared, for example, using a buffer comprising 0.16% (w/v) citric acid and 0.02% (w/v) sodium citrate at ˜pH 3.0.
Specifically, one may assess sweetness of a sweetener relative to sucrose by using a panel of trained sensory evaluators experienced in the sweetness estimation procedure. All samples (in same buffers) are served in duplicate at a temperature of 22° C. ±1° C. Sample solutions may be prepared, for example, using a buffer comprising 0.16% (w/v) citric acid and 0.02% (w/v) sodium citrate at ˜pH 3.0. Test solutions, coded with 3 digit random number codes, are presented individually to panelists, in random order. Sucrose reference standards, ranging from 2.0-10.0% (w/v) sucrose, increasing in steps of 0.5% (w/v) sucrose are also provided. Panelists are asked to estimate sweetness by comparing the sweetness of the test solution to the sucrose standards. This is carried out by taking 3 sips of the test solution, followed by a sip of water, followed by 3 sips of sucrose standard followed by a sip of water, etc. Panelists estimate the sweetness to one decimal place, e.g., 6.8, 8.5. A five minute rest period is imposed between evaluating the test solutions. Panelists are also asked to rinse well and eat a cracker to reduce any potential carry over effects.
Sucrose equivalent value (SEV) (e.g., % sucrose), determined by the panel of trained sensory evaluators, is plotted as a function of monatin concentration to obtain a dose response curve. A polynomial curve fit is applied to the dose response curve and used to calculate the sweetness intensity or potency at a particular point, e.g., 8% SEV, by dividing the sucrose equivalent value (SEV) by the monatin concentration (e.g., % monatin). See e.g., FIG. 15 (R,R/S,S monatin dose response curve); FIG. 14 (R,R monatin dose response curve). The above-mentioned sweetness intensities for S,S and R,R monatin (i.e., approximately 50-200 times sweeter and approximately 2000-2400 times sweeter than sucrose by weight, respectively) were determined at approximately 8% SEV.

[6] = Taste profiling of monatin/carbohydrate blends
Experimental: The quality of equisweet monatin/carbohydrate (50:50) blends then was assessed relative to sucrose by a small panel of trained assessors. This evaluation was carried out “double blind.” The sucrose-sweetened system was identified as the control and all other products randomly coded. Panelists were asked to assess the randomly coded sample relative to the control for the following attributes: Sweetness Profile: Onset, build and decay; Flavor Profile: Acidity, bitterness and other characteristics; Mouthfeel; and Aftertaste. Panelists also were asked to assign a score (1; poor-5; good) for the quality of the sweetener system. A summary of the comments made and scores given is presented as Table 10.

[7] = cola, sucrose 10% (control), monatin 80 ppm
[8] = lemon/lime carbonate, sucrose 10% (control), monatin 67 ppm
[9] = lemon/lime carbonate, monatin 67 ppm
[10] = equisweet monatin/carbohydrate (50:50) blends relative to sucrose control

| SMILES | Area Under Curve [1] [unit × s] | Rate of Decline [1] [unit/s] | Rate of Onset [1] [unit/s] | Time for Sweetness to Decline to Half Maximum Value [1] [s] | Time to Half Maximum Sweetness [1] [s] | Time to Maximum Sweetness [1] [s] | Intensity of Maximum Sweetness [1] [unit] | Flavor Profile [2, 7] | Aftertaste [2, 8] | Flavor Profile [2, 8] | Average Score ([2]; cola, monatin 80 ppm) | Average Score [2, 9] | times sweeter than sucrose by weight [5] | also measured |
| --- | --- | --- | --- | --- | --- | --- | --- | --- | --- | --- | --- | --- | --- | --- |
| OC[C@H]1O[C@H](O[C@]2(CCl)O[C@H](CCl)[C@@H](O)[C@@H]2O)[C@H](O)[C@@H](O)[C@H]1Cl [Sucralose, sucralose] | 119.7 | 2.1 | 16.0 | 33.1 | 2.6 | 8.0 | 64.6 | Sweet flavor, slightly | Slight licorice note | Zesty and refreshing | 3.8 | 4.1 | – | Aftertaste [2, 7]: Some sweetness; Mouthfeel [2, 7]: Slightly thinner than; Comments (sensory evaluation) ([3]; Coffee, aspartame 250 ppm, sucralose 82 ppm, R,R monatin 25 ppm + maltodextrin or erythritol (1 g, 0.5%)): Slow sweetness onset allows stronger; Comments (sensory evaluation) ([3]; Iced Tea, aspartame 450 ppm, sucralose 170 ppm, R,R monatin 40 ppm + maltodextrin or erythritol (1 g, 0.5%)): Delay in sweetness onset means first; Comments (sensory evaluation) ([4]; Cola, aspartame 550 ppm, sucralose 220 ppm, R,R monatin 45 ppm): Delay in sweetness onset means first; Comments (sensory evaluation) ([4]; Lemon/lime soft drink, aspartame 500 ppm, sucralose 200 ppm, R,R monatin 42 ppm): Slow sweetness onset allows stronger; Comments (sensory evaluation) ([4]; Orangeade, aspartame 550 ppm, sucralose 220 ppm, R,R monatin 45 ppm): Delay in sweetness onset means first |
| NC(CC(O)(Cc1c[nH]c2ccccc12)C(=O)O)C(=O)O (stereo not drawn) [R,R monatin, 2-hydroxy-2-(indol-3-ylmethyl)-4-aminoglutaric acid] | – | – | – | – | – | – | – | – | – | – | – | – | 2000-2400 times | times sweeter than sucrose by weight ([5]; listed as R,R): 2000-2400 times; times sweeter than sucrose by weight ([5]; listed as R,R stereoisomer): 2000-2400 times |
| OC[C@H]1O[C@@](CO)(O[C@H]2O[C@H](CO)[C@@H](O)[C@H](O)[C@H]2O)[C@@H](O)[C@@H]1O [Sucrose, sucrose] | 116.9 | 2.3 | 17.9 | 24.9 | 2.3 | 8.0 | 64.1 | Sweet, rounded, warm | Slight bitterness and | Soft, balanced | 4.5 | 4.8 | – | Aftertaste [6, 10]: Slight lingering; Flavor Profile [6, 10]: Pleasant, citrus; Mouthfeel [6, 10]: Full, syrupy; Sweetness Profile [6, 10]: Fast onset and build; Average Score ([6]; score 1, poor-5, good, equisweet monatin/carbohydrate (50:50) blends, sucrose control): 4.0 |
| NC(CC(O)(Cc1c[nH]c2ccccc12)C(=O)O)C(=O)O (stereo not drawn) [S,S monatin, 2-hydroxy-2-(indol-3-ylmethyl)-4-aminoglutaric acid] | – | – | – | – | – | – | – | – | – | – | – | – | 50-200 times | times sweeter than sucrose by weight ([5]; listed as S,S): 50-200 times; times sweeter than sucrose by weight ([5]; listed as S,S stereoisomer): 50-200 times |

Reference: patent US20050106305A1, “Beverage compositions comprising monatin and methods of making same” (Cargill, Inc., priority 2003, published 2005)
